In PMC7617869, “Molecular glues that inhibit deubiquitylase activity and inflammatory signaling” (Nature Structural & Molecular Biology, 2025):
Where “and” joins values, the source holds several entries; their conditions need not be identical. Equal values may be shown once.

What was measured:
[1] = molecular target: T1, BRCC36–Abraxas 2 complex (Homo sapiens, UniProt P46736+Q15018); assay: BRCC36–Abraxas 2 IQF DUB activity assay; format: biochemical; conditions: for Normalised V0: Fig. 1e, BRCC36-Abraxas2
T1 construct: made in house; host or cells: Spodoptera frugiperda (Sf9) insect cells, MultiBac
Experimental: (§1) IQF assays were performed in DUB reaction buffer containing 50 mM HEPES–NaOH pH 7.0, 100 mM NaCl, 0.1 mg ml^−1 BSA, 1 mM DTT and 0.03% v/v Brij-35. […] The final concentration of BRISC WT, all BRISC mutants, HsBRISCΔLoop, MmBRISC and DrBRISCΔNΔC was 1 nM. Other enzymes were tested at the following concentrations: 5 nM ARISC (FL), 10 nM CfBRISCΔNΔC, 250 nM AMSH* (ref. [43]), 500 nM USP2 and 1 μM trypsin (Sigma, 9002-07-7). For Michaelis–Menten experiments, 1 nM BRISC with 0–1 μM IQF K63-linked diubiquitin substrate was used. Michaelis–Menten analyses and Lineweaver–Burk plots were calculated using GraphPad Prism (version 9.0).
(§2) To assess enzymatic activity, BRISC complexes were diluted to concentrations between 1 nM and 50 nM. […] Then, 20-μl enzyme reactions were carried out in 384-well black flat-bottom low-flange plates (Corning, 35373). DUB activity was measured using IQF K63-linked diubiquitin (LifeSensors, DU6303) at 50 nM. Cleaved diubiquitin was monitored by measuring fluorescence intensity (excitation, 544 nm; emission, 575 nm; dichroic mirror, 560 nm). Fluorescence intensity was measured every minute for 30 min at 30 °C. Fluorescence intensity units were plotted against time to generate a linear reaction progress curve, where the initial velocity (V0) corresponds to the gradient of the curve (typically achieved within 15 min). IC50 values were calculated using the GraphPad Prism (version 9.0) built-in dose–response equation for inhibitor concentration versus response (variable slope).

[2] = molecular target: T2, ARISC (Homo sapiens, UniProt P46736+Q6UWZ7+Q9NXR7); assay: ARISC IQF DUB activity assay; format: biochemical; conditions: for Normalised V0: Fig. 1e, ARISC
T2 construct: full-length BRISC (FL), ARISC (FL); made in house; host or cells: Spodoptera frugiperda (Sf9) insect cells, MultiBac
Experimental: as §1, §2

[3] = tested on: ISG expression in MCF10A Cas9 cells expressing BRCC45 WT; assay: MCF10A BRCC45 WT ISG expression (RT–qPCR); format: cell-based, human; conditions: hIFNα2 75 ng/ml, 2.5 μM, 4 h
[4] = molecular target: T3, USP2 (Homo sapiens, UniProt O75604); assay: USP2 IQF diubiquitin selectivity assay; format: biochemical; conditions: for Normalised V0: Fig. 1e, USP-2; for USP2, normalised activity (Ext. 1a): two replicate columns
T3 construct: His (N, cleaved yes); host or cells: Escherichia coli BL21(DE3)
T3 sequence (O75604 258-605 limits assumed): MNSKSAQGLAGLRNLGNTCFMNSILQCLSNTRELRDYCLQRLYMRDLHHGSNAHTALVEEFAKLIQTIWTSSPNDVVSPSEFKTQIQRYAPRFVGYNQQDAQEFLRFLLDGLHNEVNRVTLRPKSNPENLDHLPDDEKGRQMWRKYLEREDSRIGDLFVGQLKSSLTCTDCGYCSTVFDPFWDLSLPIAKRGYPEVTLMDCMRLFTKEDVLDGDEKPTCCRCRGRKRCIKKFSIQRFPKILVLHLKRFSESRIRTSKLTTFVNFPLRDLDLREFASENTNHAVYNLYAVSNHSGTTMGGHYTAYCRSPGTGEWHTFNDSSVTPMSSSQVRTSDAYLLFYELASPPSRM
Experimental: BRISC DUB activity was measured at room temperature using 1 nM BRISC and 500 nM IQF diubiquitin K63 substrate (LifeSensors, DU6303) in the presence of DMSO and compounds at 10 μM (final concentrations). Assays were performed in 384-well black flat-bottom low-flange plates (Corning, 35373) in buffer containing 50 mM HEPES–NaOH pH 7.0, 100 mM NaCl, 1 mg ml^−1 BSA, 1 mM DTT and 0.03% v/v Brij-35. Then, 10 μl of twofold concentrated enzyme stock was dispensed, followed by transfer of 200 nl of compounds (1 mM stock) using a 384-pin tool and a 15-min incubation at room temperature. Then, 10 μl of twofold concentrated substrate stock was added and the reaction was monitored by measuring fluorescence intensity (excitation, 540 nm; emission, 580 nm) after 20-min incubation at room temperature and ~50% of substrate was consumed. Orthogonal assays for verification of H20 and P12 hit compounds using USP2 (100 nM) and trypsin (125 nM) were performed in identical conditions.
as §1, §2

- Normalised V0 ([1]; JMS-175-2 0.02 μM): 0.9193 and 1.28 and 0.6661
- Normalised V0 ([1]; JMS-175-2 0.0399999 μM): 0.9382 and 1.101 and 1.021
- Normalised V0 ([1]; JMS-175-2 0.0599997 μM): 0.9046 and 1.264
- Normalised V0 ([1]; JMS-175-2 0.0799994 μM): 0.9962 and 1.366 and 1.351
- Normalised V0 ([1]; JMS-175-2 0.119998 μM): 0.9007 and 1.233 and 1.5528
- Normalised V0 ([1]; JMS-175-2 0.199996 μM): 1.097 and 1.27 and 0.9275
- Normalised V0 ([1]; JMS-175-2 0.499975 μM): 0.8805 and 1.153 and 1.01
- Normalised V0 ([1]; JMS-175-2 0.799936 μM): 0.7961 and 1.246 and 1.323
- Normalised V0 ([1]; JMS-175-2 1.25984 μM): 1.021 and 1.5206 and 1.034
- Normalised V0 ([1]; JMS-175-2 1.9996 μM): 0.8007 and 0.8599 and 1.275
- Normalised V0 ([1]; JMS-175-2 3.159 μM): 1.12 and 1.1529 and 0.9992
- Normalised V0 ([1]; JMS-175-2 5.19739 μM): 0.8446 and 1.053 and 1.407
- Normalised V0 ([1]; JMS-175-2 7.99364 μM): 0.9387 and 0.8597 and 1.27
- Normalised V0 ([1]; JMS-175-2 12.7839 μM): 0.8621 and 1.3106 and 1.2815
- Normalised V0 ([1]; JMS-175-2 19.96 μM): 0.8364 and 1.032 and 1.13
- Normalised V0 ([1]; JMS-175-2 31.4999 μM): 0.8279 and 0.9824 and 0.8224
- Normalised V0 ([1]; JMS-175-2 50.147 μM): 0.8729 and 0.9534 and 1.051
- Normalised V0 ([1]; JMS-175-2 79.7601 μM): 0.848 and 0.9243 and 1.386
- Normalised V0 ([1]; JMS-175-2 125.99 μM): 0.7998 and 0.9987 and 1.073
- inhibition of BRCC36–Abraxas 2 complex ([1]; minimally active complex): did not inhibit
- inhibition of ARISC [2]: did not inhibit
- Normalised V0 ([2]; JMS-175-2 0.02 μM): 0.8556 and 0.9425 and 1.0233
- Normalised V0 ([2]; JMS-175-2 0.0399999 μM): 1.026 and 1.067 and 1.046
- Normalised V0 ([2]; JMS-175-2 0.0599997 μM): 0.904 and 0.9422 and 0.9811
- Normalised V0 ([2]; JMS-175-2 0.0799994 μM): 0.9323 and 0.9821 and 1.136
- Normalised V0 ([2]; JMS-175-2 0.119998 μM): 0.8786 and 0.8823 and 0.8932
- Normalised V0 ([2]; JMS-175-2 0.199996 μM): 0.9071 and 0.9585 and 0.9413
- Normalised V0 ([2]; JMS-175-2 0.499975 μM): 0.8879 and 0.8767 and 0.9696
- Normalised V0 ([2]; JMS-175-2 0.799936 μM): 0.7555 and 0.9585 and 0.9201
- Normalised V0 ([2]; JMS-175-2 1.25984 μM): 0.8739 and 0.9751 and 0.9993
- Normalised V0 ([2]; JMS-175-2 1.9996 μM): 0.8524 and 0.9491 and 1.046
- Normalised V0 ([2]; JMS-175-2 3.159 μM): 0.8187 and 0.9789 and 0.9215
- Normalised V0 ([2]; JMS-175-2 5.19739 μM): 0.8621 and 0.9152 and 0.9509
- Normalised V0 ([2]; JMS-175-2 7.99364 μM): 0.8584 and 0.954 and 0.9288
- Normalised V0 ([2]; JMS-175-2 12.7839 μM): 0.8845 and 0.9334 and 1.056
- Normalised V0 ([2]; JMS-175-2 19.96 μM): 0.8867 and 0.9068 and 0.9342
- Normalised V0 ([2]; JMS-175-2 31.4999 μM): 0.9307 and 0.9204 and 1.017
- Normalised V0 ([2]; JMS-175-2 50.147 μM): 0.795 and 0.9622 and 0.9115
- Normalised V0 ([2]; JMS-175-2 79.7601 μM): 0.6555 and 0.8717 and 0.8624
- Normalised V0 ([4]; JMS-175-2 0.02 μM): 1.069 and 1.241 and 0.9432
- Normalised V0 ([4]; JMS-175-2 0.0399999 μM): 0.8007 and 1.129 and 1.003
- Normalised V0 ([4]; JMS-175-2 0.0599997 μM): 1.048 and 0.9811 and 1.113
- Normalised V0 ([4]; JMS-175-2 0.0799994 μM): 0.9033 and 1.198 and 1.261
- Normalised V0 ([4]; JMS-175-2 0.119998 μM): 0.9288 and 1.09 and 1.206
- Normalised V0 ([4]; JMS-175-2 0.199996 μM): 0.6627 and 1.115 and 1.202
- Normalised V0 ([4]; JMS-175-2 0.499975 μM): 0.7837 and 1.098 and 1.253
- Normalised V0 ([4]; JMS-175-2 0.799936 μM): 0.8725 and 1 and 1.269
- Normalised V0 ([4]; JMS-175-2 1.25984 μM): 0.992 and 1.247
- Normalised V0 ([4]; JMS-175-2 1.9996 μM): 0.8222 and 1.018 and 1.206
- Normalised V0 ([4]; JMS-175-2 3.159 μM): 1.0183 and 0.9107 and 1.032
- Normalised V0 ([4]; JMS-175-2 5.19739 μM): 1.009 and 1.289
- Normalised V0 ([4]; JMS-175-2 7.99364 μM): 0.8621 and 1.003 and 1.185
- Normalised V0 ([4]; JMS-175-2 12.7839 μM): 0.6092 and 0.9802 and 1.084
- Normalised V0 ([4]; JMS-175-2 19.96 μM): 1.301 and 1.171 and 1.043
- Normalised V0 ([4]; JMS-175-2 31.4999 μM): 1.058 and 1.049 and 0.9631
- Normalised V0 ([4]; JMS-175-2 50.147 μM): 1.16 and 1.045 and 1.064
- Normalised V0 ([4]; JMS-175-2 79.7601 μM): 0.9987 and 0.9518 and 1.282
- Normalised V0 ([4]; JMS-175-2 125.99 μM): 1.008 and 1.145 and 1.176
- Normalised V0 ([4]; JMS-175-2 199.922 μM): 0.9471 and 0.7832 and 0.9905
- USP2, normalised activity (Ext. 1a) ([4]; log [compound (μM)] 0.1938, listed as H20): 1.2610 and 1.0496
- USP2, normalised activity (Ext. 1a) ([4]; log [compound (μM)] 0.4949, listed as H20): 1.2203 and 1.1061
- USP2, normalised activity (Ext. 1a) ([4]; log [compound (μM)] 0.7959, listed as H20): 1.1774 and 1.0526
- USP2, normalised activity (Ext. 1a) ([4]; log [compound (μM)] 1.0969, listed as H20): 1.1262 and 1.0278
- USP2, normalised activity (Ext. 1a) ([4]; log [compound (μM)] 1.3979, listed as H20): 1.0528 and 0.9672
- USP2, normalised activity (Ext. 1a) ([4]; log [compound (μM)] 1.6990, listed as H20): 1.0367 and 0.9078
- USP2, normalised activity (Ext. 1a) ([4]; log [compound (μM)] 2.0000, listed as H20): 0.9400 and 0.8456
- USP2, normalised activity (Ext. 1a) ([4]; log [compound (μM)] 2.3010, listed as H20): 0.9026 and 0.7165
- USP2, normalised activity (Ext. 1a) ([4]; log [compound (μM)] -0.1072, listed as H20): 1.1074 and 1.0499
- USP2, normalised activity (Ext. 1a) ([4]; log [compound (μM)] -0.4082, listed as H20): 1.1923 and 1.0651
- USP2, normalised activity (Ext. 1a) ([4]; log [compound (μM)] -0.7093, listed as H20): 1.1905 and 1.0735
- USP2, normalised activity (Ext. 1a) ([4]; log [compound (μM)] -1.7100, normalisation point): 1.0000
SMILES: O=C(NC1CCNCC1)c1nn(C(=O)c2c(Cl)cccc2Cl)cc1NC(=O)c1c(Cl)cccc1Cl [JMS-175-2]
- ISG expression (ISG15, IFIT1, IFIT2, IFITM1, CXCL10) [3]: reduced gene expression for all five ISGs
